From patent US20180147206A1, “ACTIVATION OF NEURONAL STORE-OPERATED CALCIUM ENTRY PATHWAY FOR THE TREATMENT OF ALZHEIMER'S DISEASE” (The Board of Regents of the University of Texas System, priority 2015, published 2018) come the findings set out here.

Series [1] in a line: Stability in CD-1 mouse plasma. The conditions noted are these: commercial CD-1 mouse plasma; 2 μM. The series is classed as in vitro ADME. The method, then: FIGS. 12A-D. NSN21778 in vitro metabolism stability, in vivo plasma pharmacokinetics, and side effect on body weight (Related to FIGS. 7A-G). (FIG. 12A) The metabolic stability of NSN21778 was evaluated in vitro after incubation with commercial liver S9 fractions in the presence of phase I (NADPH regenerating system) cofactors. Compound levels were determined by LC-MS/MS. Additionally, the stability of NSN21778 in the presence of commercial CD-1 mouse plasma was measured. (FIG. 12B) NSN21778 was dosed i.p. at 10 mg/kg to female CD-1 mice. Levels of NSN21778 in plasma and brain were evaluated by LC-MS/MS. (FIG. 12C) WTGFP, PS1KIGFP and APPKIGFP mice body weight after i.p. administrated with control solution or 10 mg/kg NSN21778 for 10 weeks. Data presented as mean±SE (n=5 mice). (FIG. 12D) Body weight gained for various treatments.
In vitro metabolism assays. Female ICR/CD-1 mouse S9 fractions were purchased from Celsis/In Vitro Technologies (Baltimore, Md.). 25 μl (0.5 mg) of S9 protein was added to a 15 ml glass screw cap tube. […] The supernatant was analyzed by LC-MS/MS. Stability in commercial mouse CD-1 plasma (Bioreclamation, Westbury, N.Y.) was measured in a similar fashion. […] Reactions were quenched with methanol as above and supernatants evaluated by LC-MS/MS. Compound half-life was determined by the method of substrate depletion as described (McNaney et al., 2008).

For series [2], the system named is other TRPCs (TRPC1-7), Orais (Orai1-3), or combination of TRPC6 and Orai2. Put plainly: Fura-2 Ca2+ imaging in HEK293 cells transfected with other TRPCs, Orais or TRPC6 plus Orai2. The format is cell-based. The conditions noted are these: 1 μM (data not shown). The method, then: To confirm the target for Hyp and NSN compounds, the inventors overexpressed TRPC6 in HEK293 cells and performed a series of Fura-2 Ca^2+ imaging experiments. […] In additional experiments, the inventors evaluated effects of 1 μM NSN compound in experiments with HEK293 cells transfected with other TRPCs (TRPC1-7), Orais (Orail-3), or combination of TRPC6 and Orai2. […] From these experiments, the inventors concluded that Hyp acts as direct activator of TRPC6 channels, but the actions of NSN compound are more complex. In further experiments, the inventors measured SOC in conditions of store depletion. To achieve this, HEK239 cells were preincubated in Ca^2+-free media containing 1 μM Tg. In these experiments, the inventors observed endogenous SOC response in EGFP-transfected cells, which was further enhanced in TRPC6-transfected cells. […] TRPC6 channels are known to be activated by DAG (Estacion et al., 2004). In spine nSOC measurements, addition of 100 μM DHPG was required to generate robust Ca^2+ responses. Thus, in the next series of experiments, the inventors evaluated effects of OAG, a synthetic and stable analog of DAG.

Series [3] deals with mushroom spines in hippocampal CA1 neurons. Nature of the series: Dendritic spine analysis in hippocampal slice. The conditions noted are these: 6 month-old mice, 300 nM for 3.5 hours. The series is classed as cell-based, mouse. The protocol: FIGS. 6A-E. NSN21778 rescues mushroom spine and synaptic plasticity defects in AD hippocampal slices. (FIG. 6A) Confocal images of CA1 hippocampal slices from 6 month-old WTGFP, PS1KIGFP, and APPKIGFP mice. The images are shown for untreated slices (CON) and for slices treated with 300 nM NSN21778 (+NSN) for 3.5 hrs prior to fixation. Scale bar is 10 μm. (FIG. 6B) The fraction of mushroom spines in hippocampal CA1 neurons from 6 month-old WTGFP, PS1KIGFP, and APPKIGFP mice. The results are shown for untreated slices (CON) and for slices treated with 300 nM NSN21778 (+NSN). The average fraction of mushroom spines for each group of cells is shown as mean±SE (n≥31 neurons). ***, p <0.001. (FIG. 6C) Sample fEPSP traces are shown for 6 month-old WT and APPKI hippocampal slices prior to stimulation (basal), immediately after tetanus stimulation (induction) and 1 h after tetanus stimulation (after 1 hr). The results are shown for untreated slices and for slices pre-treated with 300 nM NSN21778 (+NSN) for 2-3 hours prior to tetanus stimulation. (FIG. 6D) The normalized and averaged fEPSP slope is shown as a function of time in the experiments with 6 month-old wild-type and APPKI slices with (+NSN) or without 300 nM NSN21778 pre-treatment. […]
Dendritic Spine Analysis in Hippocampal slice. […] Approximately 25 neurons from 5 mice were analyzed for each genotype. […]

In the case of `CC(=O)Nc1ccc(CCNc2ncnc3ccc(N)cc23)cc1` [NSN21778, N-{4-[2-(6-Amino-quinazolin-4-ylamino)-ethyl]-phenyl}-acetamide], the stability in plasma entry in series [1] is “stable”. Also, the “Ca2+ influx” value in series [2] is recorded as “failed to induce Ca^2+ influx”. Further, the mushroom spines entry is “complete rescue” in series [3] (PS1KIGFP and APPKIGFP hippocampal slices); “no effect” in series [3] (WTGFP slices).
